Experiments:
[1] = tested on: sAPP secretion in PC12 cells; test: Time course of sAPP secretion in PC12 cells, Western immunoblotting (Example 2); assay type: cell-based; conditions: PC12 cells treated for 6, 12, 24, 48, or 72 hours; AIT-082 10 nM-100 μM; RPMI 1640 and 0.5% FBS
Protocol: To determine the time course of sAPP secretion after administration of AIT-082 or NGF to PC12 cells, an experiment similar to the experiment of Example 1 was carried out using multiple time points. Five to six million PC12 cells were treated in RPMI 1640 and 0.5% FBS with doses of AIT-082 (10 nM-100 μM). […] Levels of sAPP in samples from conditioned media and cell lysates were measured by Western immunoblotting with anti-sAPP antibody. When PC12 cells were treated with AIT-082 for 6, 12, 24, 48, or 72 hours, there was an increase in levels of secreted sAPP.

[2] = tested on: secretion of Aβ in cultured PC12 cells; test: Secretion of Aβ in cultured PC12 cells, sandwich ELISA (Example 3); assay type: cell-based; conditions: AIT-082 100 μg/ml, PC12 conditioned media
Protocol: To determine the effect of AIT-082 on Aβ levels, PC12 cells were treated with a high dose of AIT-082 (100 μg/ ml) and the conditioned media was analyzed for Aβ. Levels of total Aβ were measured using a sensitive sandwich ELISA. Experiments were done in triplicate and the values were obtained from known standards run in parallel with the samples as described previously (A. Becher et al., “The Synaptophysin-Synaptobrevin Complex: A Hallmark of Synaptic […] Maturation,” J. Neurosci. 19: 1922-1931).

[3] = tested on: nerve growth factor (NGF), neurotrophin-3, and basic fibroblast growth factor (bFGF); conditions: at least three neurotrophins; reference 3; cited from earlier work
[4] = tested on: sAPP secretion in PC12 cells; test: sAPP secretion in PC12 cells, Western immunoblot of conditioned media (Example 1); assay type: cell-based; conditions: for secretion of sAPP versus control: single agent, PC12 conditioned media, 48 hours, 22C11 immunoblot, NGF 10 and 50 ng/ml, bFGF 50 ng/ml, AIT-082 different doses
Protocol: Treatment of Cells and Preparation of Cell Extract. PC12 cells were first grown to 70-80% confluence in the regular medium. A day prior to the experiment, PC12 cells were subcultured uniformly onto the plate with minimum cellular aggregation/ clumping to approximately 1×10^6 cells per 60-mm plate. The PC12 cells were then subjected to treatments with either AIT-082, NGF, bFGF or a combination as previously described (4). AIT-082 was added into separate plates at […] different doses: 0, 5, 20, 30, 50, 100, 300 ng/ ml and also 1, 3, 10, 30, 100 μg/ml. For comparative purposes, cultures were treated with NGF at 10 and 50 ng/ml, and bFGF was used at 50 ng/ml. Additional cultures contained both AIT-082 (300 ng/ml) and either NGF (50 ng/ml) or bFGF (50 ng/ml). Following incubation for 48 hours, the conditioned medium from each plate was collected.
PAGE and Western Immunoblotting. Total proteins from the conditioned media were analyzed on a 12% polyacrylamide gel containing SDS (SDS-PAGE), and western blot analysis was performed in the Mini-PROTEAN II system of Bio-Rad as described previously (6). sAPP was detected using the 22C11 (Boehringer Mannheim, Indianapolis, Ind.). A biotinylated secondary antibody, horse anti-mouse (Boehringer Mannheim), was also used. The detection system was based on the avidin-biotinylated-complex (Vector labs, Burlingame, Calif.) and enzymatic color reactions.
Treatment of NGF or bFGF Results in a Substantial Increase in sAPP Secretion in PC12 Cells. In denaturing polyacrylamide gel, an equal amount of total protein was loaded from each of the conditioned medium samples. After 48 hours of incubation, 50 μg samples of conditioned media were subjected to SDS-PAGE (12%) and transferred to a nitrocellulose membrane. Protein size markers shown on the left of the blot from top to bottom are: 107, 74, 49.3, 36.4, and 28.5 kDa. For FIG. 1, the transferred proteins were probed with anti-APP antibody (22C11), and immunodetection was carried out by the enzymatic color method as described previously (5). Two distinct bands of 110 and 95 kDa were detected, which correspond to soluble APP derivatives (sAPP) arising from different alternate forms of APP and/or their posttranslationally modified derivatives.

PC12 cells = test: NGF-mediated differentiation of PC12 cells (Example 2); assay type: cell-based
[5] = tested on: sAPP release from PC12 cultures; conditions: previously shown, reference 7; cited from earlier work

O=C(CCn1cnc2c(=O)[nH]cnc21)Nc1ccc(C(=O)O)cc1 [AIT-082, N-4-carboxyphenyl-3-(6-oxohydropurin-9-yl) propanamide]
levels of secreted sAPP [1]: increase | Percent change from controls (total Aβ) [2]: −20% | Levels of total Aβ ([2]; triplicate): 136 ± 6 fmols/ml | expression of neurotrophins (NGF, neurotrophin-3, bFGF) [3]: induce the expression | levels of extracellular sAPP versus control cultures (dose response, densitometry, FIG. 2) ([4]; AIT-082 5-300 ng/ml, PC12): statistically significantly higher | secretion of sAPP versus control [4]: significant increase | effect of cotreatment on NGF-mediated differentiation (PC12 cells; AIT-082 cotreatment with NGF, PC12 cells): enhanced NGF-mediated differentiation

NGF: Nerve growth factor procured from Life Technologies
release of sAPP from PC12 cultures [5]: induce the release of sAPP | secretion of sAPP versus control [4]: significant increase | differentiation phenotype of PC12 cells (PC12 cells; NGF treatment alone): sympathetic neuronal phenotypes

bFGF: basic fibroblast growth factor procured from Life Technologies
secretion of sAPP versus control [4]: slight increase

Source: patent US20020040031A1, “Methods for prevention of accumulation of amyloid beta peptide in the central nervous system” (priority 2000, published 2002)
